Measurements published in patent US20220112187A1, “PYRAZOLOPYRIDINE AMINE COMPOUNDS FOR THE TREATMENT OF AUTOIMMUNE DISEASE” (Hoffmann-La Roche Inc., priority 2018, published 2022).

Molecular target: T1, human TLR8 (Homo sapiens, UniProt Q9NR97)
T1 sequence (Q9NR97 27-1041): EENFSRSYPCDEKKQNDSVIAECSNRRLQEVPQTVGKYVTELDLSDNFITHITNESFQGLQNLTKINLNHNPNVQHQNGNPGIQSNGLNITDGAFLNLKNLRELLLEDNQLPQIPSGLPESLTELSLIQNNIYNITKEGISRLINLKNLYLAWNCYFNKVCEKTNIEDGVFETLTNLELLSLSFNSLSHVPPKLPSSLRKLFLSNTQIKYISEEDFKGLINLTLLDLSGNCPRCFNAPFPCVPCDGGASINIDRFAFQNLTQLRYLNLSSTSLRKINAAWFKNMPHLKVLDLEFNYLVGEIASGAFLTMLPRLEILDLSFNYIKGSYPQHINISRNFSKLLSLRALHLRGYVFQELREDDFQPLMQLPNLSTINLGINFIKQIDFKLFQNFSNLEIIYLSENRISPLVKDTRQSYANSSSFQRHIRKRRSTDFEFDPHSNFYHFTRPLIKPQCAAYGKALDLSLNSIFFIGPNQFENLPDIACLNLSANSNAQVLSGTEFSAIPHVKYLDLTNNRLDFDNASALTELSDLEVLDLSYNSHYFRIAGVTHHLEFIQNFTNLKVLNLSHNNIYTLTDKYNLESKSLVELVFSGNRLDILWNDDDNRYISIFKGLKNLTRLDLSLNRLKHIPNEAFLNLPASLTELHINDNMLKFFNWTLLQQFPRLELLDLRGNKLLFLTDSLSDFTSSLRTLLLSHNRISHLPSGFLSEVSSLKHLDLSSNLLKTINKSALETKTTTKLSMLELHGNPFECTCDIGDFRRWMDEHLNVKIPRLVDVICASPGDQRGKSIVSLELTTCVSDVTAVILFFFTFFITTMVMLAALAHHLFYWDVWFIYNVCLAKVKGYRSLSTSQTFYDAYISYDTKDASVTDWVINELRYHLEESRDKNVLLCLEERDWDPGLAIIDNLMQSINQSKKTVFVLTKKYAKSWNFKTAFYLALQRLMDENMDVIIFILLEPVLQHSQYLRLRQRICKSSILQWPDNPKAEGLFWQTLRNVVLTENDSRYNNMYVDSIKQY
Experiment: HEK293-Blue-hTLR-8 cells assay (SEAP reporter, R848 stimulation)
Type: cell-based
Conditions: HEK293-Blue-hTLR8 cells, R848 ligand, 20 hrs incubation
Outline: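 Antagonist mode: HEK293-Blue-hTLR8 cells with serially diluted compound (1% DMSO final) plus R848 (10 μL of 60 uM stock) for 20 hrs at 37° C. Supernatant NF-κB/AP-1-driven SEAP measured with QUANTI-Blue substrate, 2 hrs at 37° C, absorbance 620–655 nm.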

| IC50 [µM] | Structure (SMILES) |
| --- | --- |
| 0.065 | C[C@@H]1CN(c2ccc(C#N)n3nccc23)C[C@H](CN2CCC3(CCCCN3)C2)O1 (stereo partly drawn) [Example 42, 4-[(2S,6R)-2-(2,6-diazaspiro[4.5]decan-2-ylmethyl)-6-methyl-morpholin-4-yl]pyrazolo[1,5-a]pyridine-7-carbonitrile] |
| 0.6 | C[C@@H]1CN(c2ccc(C#N)n3nccc23)C[C@H](CN2C[C@H]3CC[C@@H](N(C)C)[C@H]3C2)O1 (racemic) [Example 75, 4-[(2S,6R)-2-[[4-(dimethylamino)-3,3a,4,5,6,6a-hexahydro-1H-cyclopenta[c]pyrrol-2-yl]methyl]-6-methyl-morpholin-4-yl]pyrazolo[1,5-a]pyridine-7-carbonitrile] |
